# Source: patent publication US8796324B2, “Substituted 2-acetamido-5-aryl-1,2,4-triazolones and use thereof” (Bayer Intellectual Property GmbH, priority 2009, dated 2014)
# pIC50: −log10 of the molar value. Where a name gives a salt, the structure may show the parent alone.
# Key:
# [1] = biological target: T1, human V2 receptor (Homo sapiens, UniProt P30518); experiment: Cellular in vitro assay for determining the vasopressin receptor activity (aequorin luminescence); assay type: cell-based; details: CHO cell line transfected with the human V2 receptor (and Gα16); agonist [Arg8]-vasopressin; read-out: IC50 hV2
# T1 construct: expressed in transfected cells; host or cells: CHO K1 (constitutively expressing modified aequorin; co-transfected with promiscuous G-alpha-16)
# T1 sequence (P30518 whole entry): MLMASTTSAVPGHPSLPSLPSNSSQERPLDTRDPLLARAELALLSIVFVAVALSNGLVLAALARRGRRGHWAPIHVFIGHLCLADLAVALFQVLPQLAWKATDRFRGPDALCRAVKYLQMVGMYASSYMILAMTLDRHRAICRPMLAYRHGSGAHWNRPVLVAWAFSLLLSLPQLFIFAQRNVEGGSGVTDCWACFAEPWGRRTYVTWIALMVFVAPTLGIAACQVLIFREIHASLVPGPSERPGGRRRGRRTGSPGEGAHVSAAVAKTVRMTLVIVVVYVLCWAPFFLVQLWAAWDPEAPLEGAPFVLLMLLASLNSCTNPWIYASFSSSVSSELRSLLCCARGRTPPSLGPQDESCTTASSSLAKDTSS
# Text: (§1) B-1. Cellular In Vitro Assay for Determining the Vasopressin Receptor Activity
# (§2) The identification of agonists and antagonists of the V1a and V2 vasopressin receptors from humans and rats and also the quantification of the activity of the substances described here took place using recombinant cell lines. These cells derive originally from a hamster ovary epithelial cell (Chinese Hamster Ovary, CHO K1, ATCC: American Type Culture Collection, Manassas, Va. 20108, USA). The test cell lines constitutively express a modified form of the calcium-sensitive photoprotein aequorin, which, after reconstitution with the cofactor coelenterazine, emits light when there are increases in the free calcium concentration (Rizzuto R., Simpson A. W., Brini M., Pozzan T.; Nature 358 (1992) 325-327). In addition, the cells are stably transfected with the human or rat V1a or V2 receptors. In the case of the Gs-coupling V2 receptors, the cells are stably transfected with a further gene, which codes for the promiscuous Gα16 protein (Amatruda T. T., Steele D. A., Slepak V. Z., Simon M. I., Proc. Nat. Acad. Sci. USA 88 (1991), 5587-5591), either independently or as a fusion gene. The resulting vasopressin receptor test cells react to stimulation of the recombinantly expressed vasopressin receptors by intracellular release of calcium ions, which can be quantified by the resulting aequorin luminescence using a suitable luminometer (Milligan G., Marshall F., Rees S., Trends in Pharmaco. Sci. 17 (1996) 235-237).
# (§3) On the day before the assay, the cells are plated out in culture medium (DMEM, 10% FCS, 2 mM glutamine, 10 mM HEPES) in 384-well microtiter plates and kept in a cell incubator (96% humidity, 5% v/v carbon dioxide, 37° C.). On the day of the assay, the culture medium is replaced by a Tyrode solution (140 mM sodium chloride, 5 mM potassium chloride, 1 mM magnesium chloride, 2 mM calcium chloride, 20 mM glucose, 20 mM HEPES), which additionally contains the cofactor coelenterazine (50 μM), and the microtiter plate is then incubated for a further 3-4 hours. The test substances in various concentrations are placed for 10 to 20 minutes in the wells of the microtiter plate before the agonist [Arg8]-vasopressin is added, and the resulting light signal is measured immediately in the luminometer. The IC50 values are calculated using the GraphPad PRISM computer program (Version 3.02).
# (§4) The table below lists representative IC50 values for the compounds of the invention on the cell line transfected with the human V1a or V2 receptor: […]
# [2] = biological target: T2, human V1a receptor (Homo sapiens, UniProt P37288); experiment: as above; assay type: cell-based; details: CHO cell line transfected with the human V1a receptor; agonist [Arg8]-vasopressin; read-out: IC50 hV1a
# T2 construct: expressed in transfected cells; host or cells: CHO K1 (constitutively expressing modified aequorin)
# T2 sequence (P37288 whole entry): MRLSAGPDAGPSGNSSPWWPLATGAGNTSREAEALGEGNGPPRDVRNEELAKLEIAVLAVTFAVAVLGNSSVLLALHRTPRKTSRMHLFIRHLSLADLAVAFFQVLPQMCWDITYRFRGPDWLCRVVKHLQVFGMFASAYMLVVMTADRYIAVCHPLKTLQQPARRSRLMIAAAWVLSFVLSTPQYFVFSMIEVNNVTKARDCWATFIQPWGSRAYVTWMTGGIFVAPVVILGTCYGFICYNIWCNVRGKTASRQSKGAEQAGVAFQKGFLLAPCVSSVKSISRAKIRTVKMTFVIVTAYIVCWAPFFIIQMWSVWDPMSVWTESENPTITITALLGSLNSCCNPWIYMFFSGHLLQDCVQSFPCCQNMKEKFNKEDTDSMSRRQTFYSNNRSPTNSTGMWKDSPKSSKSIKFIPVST
# Text: as §1, §2, §3, §4
Structure (SMILES),pIC50 [1],pIC50 [2]
"NC(=O)NCC(NC(=O)Cn1nc(-c2ccc(Cl)cc2)n(CCC(F)(F)F)c1=O)c1cccc(Cl)c1Cl (single isomer, unassigned) [Example 121, N-[2-(Carbamoylamino)-1-(2,3-dichlorophenyl)ethyl]-2-[3-(4-chlorophenyl)-5-oxo-4-(3,3,3-trifluoropropyl)-4,5-dihydro-1H-1,2,4-triazol-1-yl]acetamide]",8.85,9.05
"C[C@@](CO)(NC(=O)Cn1nc(-c2ccc(Cl)cc2)n(C[C@H](O)C(F)(F)F)c1=O)c1cccc(C(F)(F)F)c1 [Example 44, 2-{3-(4-Chlorophenyl)-5-oxo-4-[(2S)-3,3,3-trifluoro-2-hydroxypropyl]-4,5-dihydro-1H-1,2,4-triazol-1-yl}-N-{(2R)-1-hydroxy-2-[3-(trifluoromethyl)phenyl]propan-2-yl}acetamide]",8.77,7.36
"COc1cccc(C(CCO)NC(=O)Cn2nc(-c3ccc(Cl)cc3)n(C3CC3)c2=O)c1 (racemic) [Example 89, 2-[3-(4-Chlorophenyl)-4-cyclopropyl-5-oxo-4,5-dihydro-1H-1,2,4-triazol-1-yl]-N-[3-hydroxy-1-(3-methoxyphenyl)propyl]acetamide]",6.54,5.54
Cc1csc(-c2nn(CC(=O)NC(CO)c3cccc(Cl)c3F)c(=O)n2CC(C)C)c1Cl (stereo not drawn) [Example 172],6.87,7.04
"COc1ccccc1C(CCOC(N)=O)NC(=O)Cn1nc(-c2ccc(Cl)cc2)n(C[C@H](O)C(F)(F)F)c1=O (stereo partly drawn) [Example 188, 3-[({3-(4-Chlorophenyl)-5-oxo-4-[(2S)-3,3,3-trifluoro-2-hydroxypropyl]-4,5-dihydro-1H-1,2,4-triazol-1-yl}acetyl)amino]-3-(2-methoxyphenyl)propyl carbamate]",8.00,8.09
"O=C(Cn1nc(-c2ccc(Cl)cc2)n(C2CC2)c1=O)NC(CO)c1cccc(C(F)(F)F)c1 (racemic) [Example 96, 2-[3-(4-Chlorophenyl)-4-cyclopropyl-5-oxo-4,5-dihydro-1H-1,2,4-triazol-1-yl]-N-{2-hydroxy-1-[3-(trifluoromethyl)phenyl]ethyl}acetamide]",7.40,7.15
"Cc1ccccc1C(CCO)NC(=O)Cn1nc(-c2ccc(Cl)cc2)n(C[C@H](O)C(F)(F)F)c1=O (single isomer, unassigned) [Example 87]",8.24,8.42
C=CCn1c(-c2ccc(Cl)cc2)nn(CC(=O)NC(CO)c2cccc(Cl)c2F)c1=O (stereo not drawn) [Example 168],7.12,7.06
O=C(Cn1nc(-c2ccc(Cl)s2)n(Cc2ccccc2F)c1=O)NC(CO)c1cccc(F)c1F (stereo not drawn) [Example 185],7.35,7.26
"O=C(Cn1nc(-c2ccc(Cl)cc2)n(C[C@H](O)C(F)(F)F)c1=O)NC(CO)c1cccc(C(F)F)c1 (stereo partly drawn) [Example 157, 2-{3-(4-Chlorophenyl)-5-oxo-4-[(2S)-3,3,3-trifluoro-2-hydroxypropyl]-4,5-dihydro-1H-1,2,4-triazol-1-yl}-N-{1-[3-(difluoromethyl)phenyl]-2-hydroxyethyl}acetamide]",8.29,7.91
"NC(=O)OCC(NC(=O)Cn1nc(-c2ccc(Cl)cc2)n(CCC(F)(F)F)c1=O)c1cccc(C(F)(F)F)c1 (single isomer, unassigned) [Example 112, 2-({[3-(4-Chlorophenyl)-5-oxo-4-(3,3,3-trifluoropropyl)-4,5-dihydro-1H-1,2,4-triazol-1-yl]acetyl}amino)-2-[3-(trifluoromethyl)phenyl]ethyl carbamate]",8.22,8.62
"C[C@@](COC(N)=O)(NC(=O)Cn1nc(-c2ccc(Cl)cc2)n(C[C@H](O)C(F)(F)F)c1=O)c1cccc(C(F)(F)F)c1 [Example 45, (2R)-2-[({3-(4-Chlorophenyl)-5-oxo-4-[(2S)-3,3,3-trifluoro-2-hydroxypropyl]-4,5-dihydro-1H-1,2,4-triazol-1-yl}acetyl)amino]-2-[3-(trifluoromethyl)phenyl]propyl carbamate]",8.60,8.26
"N#Cc1cccc([C@H](CO)NC(=O)Cn2nc(-c3ccc(Cl)cc3)n(C[C@H](O)C(F)(F)F)c2=O)c1 [Example 75, 2-{3-(4-Chlorophenyl)-5-oxo-4-[(2S)-3,3,3-trifluoro-2-hydroxypropyl]-4,5-dihydro-1H-1,2,4-triazol-1-yl}-N-[(1R)-1-(3-cyanophenyl)-2-hydroxyethyl]acetamide]",7.23,6.29
"NC(=O)OCC(NC(=O)Cn1nc(-c2ccc(Cl)cc2)n(C[C@H](O)C(F)(F)F)c1=O)c1cccc(Cl)c1Cl (single isomer, unassigned) [Example 203]",8.36,8.57
"NCC(NC(=O)Cn1nc(-c2ccc(Cl)cc2)n(C[C@H](O)C(F)(F)F)c1=O)c1cccc(C(F)(F)F)c1 (mixture of isomers) [Example 10, N-{2-Amino-1-[3-(trifluoromethyl)phenyl]ethyl}-2-{3-(4-chlorophenyl)-5-oxo-4-[(2S)-3,3,3-trifluoro-2-hydroxypropyl]-4,5-dihydro-1H-1,2,4-triazol-1-yl}acetamide hydrochloride (diastereomer mixture)]",8.20,7.98
"NC(=O)OCCC(NC(=O)Cn1nc(-c2ccc(Cl)cc2)n(C[C@H](O)C(F)(F)F)c1=O)c1cccc(Cl)c1Cl (single isomer, unassigned) [Example 73]",8.80,7.97
"NC(=O)OCC(NC(=O)Cn1cc(-c2ccc(Cl)cc2)n(CC(O)C(F)(F)F)c1=O)c1ccccc1C(F)(F)F (stereo not drawn) [Example 207, 2-({[4-(4-Chlorophenyl)-2-oxo-3-(3,3,3-trifluoro-2-hydroxypropyl)-2,3-dihydro-1H-imidazol-1-yl]acetyl}amino)-2-[2-(trifluoromethyl)phenyl]ethyl carbamate]",7.00,8.48
"CCS(=O)(=O)NCC(NC(=O)Cn1nc(-c2ccc(Cl)cc2)n(C[C@H](O)C(F)(F)F)c1=O)c1cccc(Cl)c1Cl (single isomer, unassigned; diastereomer ii) [Example 34]",8.82,8.52
"NC(=O)OCC(NC(=O)Cn1nc(-c2ccc(Cl)cc2)n(C[C@H](O)C(F)(F)F)c1=O)c1cccc(C(F)(F)F)c1 (single isomer, unassigned) [Example 48]",8.36,8.28
"CS(=O)(=O)CC(NC(=O)Cn1nc(-c2ccc(Cl)cc2)n(C[C@H](O)C(F)(F)F)c1=O)c1ccccc1C(F)(F)F (single isomer, unassigned) [Example 136]",7.62,8.41
"NC(=O)OCC(NC(=O)Cn1nc(-c2ccc(Cl)cc2)n(CCC(F)(F)F)c1=O)c1ccccc1C(F)(F)F (single isomer, unassigned) [Example 144, 2-({[3-(4-Chlorophenyl)-5-oxo-4-(3,3,3-trifluoropropyl)-4,5-dihydro-1H-1,2,4-triazol-1-yl]acetyl}amino)-2-[2-(trifluoromethyl)phenyl]ethyl carbamate]",7.86,8.85
"NCC(NC(=O)Cn1nc(-c2ccc(Cl)cc2)n(C[C@H](O)C(F)(F)F)c1=O)c1ccccc1C(F)(F)F (single isomer, unassigned; diastereomer ii) [Example 14]",8.05,9.00
"NC(=O)OCC(NC(=O)Cn1nc(-c2ccc(Cl)cc2)n(C[C@H](O)C(F)(F)F)c1=O)c1ccccc1Cl (stereo partly drawn) [Example 53, 2-(2-Chlorophenyl)-2-[({3-(4-chlorophenyl)-5-oxo-4-[(2S)-3,3,3-trifluoro-2-hydroxypropyl]-4,5-dihydro-1H-1,2,4-triazol-1-yl}acetyl)amino]ethyl carbamate]",8.31,8.82
"CN(C(=O)Cn1nc(-c2ccc(Cl)cc2)n(C[C@H](O)C(F)(F)F)c1=O)C(CO)c1cccc(C(F)(F)F)c1 (stereo partly drawn) [Example 163, 2-{3-(4-Chlorophenyl)-5-oxo-4-[(2S)-3,3,3-trifluoro-2-hydroxypropyl]-4,5-dihydro-1H-1,2,4-triazol-1-yl}-N-{2-hydroxy-1-[3-(trifluoromethyl)phenyl]ethyl}-N-methylacetamide]",8.11,6.23
